Data reported in patent publication US20220324835A1 (Nurix Therapeutics, Inc., priority 2018, published 2022).

How the values were obtained:
[1] = molecular target: T1, Cbl-b (Homo sapiens, UniProt Q13191); experiment: Cbl-b activity assay (Cbl-b inhibition assay), TR-FRET of Cbl-b interaction with UbcH5B-Ub; format: biochemical; conditions: assay buffer with 100 mM NaCl, 60 nM Src kinase; read-out: Cbl-b activity IC50
In short: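 TR-FRET readout of Cbl-b binding to Bodipy-fluorescein N-terminally labeled Ub conjugated to UbcH5B C85K, measured with compound present. After compound incubation, 60 nM Src kinase with 1 mM ATP and 5 mM MgCl2 (final) was added for 1.5 h, then a further 1 h incubation; asterisked values used 50 mM NaCl buffer and 30 nM Src.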

[2] = molecular target: T1, Cbl-b; experiment: Cbl-b inhibition assay (Cbl-b activity assay, FRET, Biological Example 1; 100 mM NaCl, 60 nM Src kinase); format: biochemical; conditions: upper bound stated in text lists; read-out: IC50 values in the Cbl-b inhibition assay of Biological Example 1
In short: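 Binding-based Cbl-b activity assay. Src-phosphorylated, N-terminally biotin-Avi-tagged Cbl-b recruits labelled UbcH5B-Ub, and proximity to streptavidin-terbium yields FRET.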

[3] = tested on: T-cell; experiment: CD25 cell surface staining on T-cells co-stimulated with anti-CD3 and anti-CD28 antibody (Biological Example 2); format: cell-based, human; conditions: Homo sapiens, T-cell, fold change over baseline (anti-CD3/anti-CD28 stimulated T-cells without inhibitor), read-out: CD25 staining Anti-CD3/Anti-CD28 stimulation
In short: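 No assay protocol given; T-cells stimulated with anti-CD3 alone or anti-CD3 plus anti-CD28, with or without Cbl-b inhibitor. Activation read as IL-2 secretion or CD25 surface staining, expressed as fold over baseline from uninhibited cells […].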

[4] = tested on: T-cell; experiment: IL-2 secretion from T-cells stimulated with anti-CD3 antibody alone (Biological Example 2); format: cell-based, human; conditions: Homo sapiens, T-cell; 1 μM Cbl-b inhibitor; fold change over baseline (anti-CD3/anti-CD28 stimulated T-cells without inhibitor); read-out: IL-2 secretion Anti-CD3 stimulation
[5] = tested on: T-cell; experiment: CD25 cell surface staining on T-cells stimulated with anti-CD3 antibody alone (Biological Example 2); format: cell-based, human; conditions: Homo sapiens, T-cell; 1 μM Cbl-b inhibitor; fold change over baseline (anti-CD3/anti-CD28 stimulated T-cells without inhibitor); read-out: CD25 staining Anti-CD3 stimulation

T1 sequence (Q13191 36-427): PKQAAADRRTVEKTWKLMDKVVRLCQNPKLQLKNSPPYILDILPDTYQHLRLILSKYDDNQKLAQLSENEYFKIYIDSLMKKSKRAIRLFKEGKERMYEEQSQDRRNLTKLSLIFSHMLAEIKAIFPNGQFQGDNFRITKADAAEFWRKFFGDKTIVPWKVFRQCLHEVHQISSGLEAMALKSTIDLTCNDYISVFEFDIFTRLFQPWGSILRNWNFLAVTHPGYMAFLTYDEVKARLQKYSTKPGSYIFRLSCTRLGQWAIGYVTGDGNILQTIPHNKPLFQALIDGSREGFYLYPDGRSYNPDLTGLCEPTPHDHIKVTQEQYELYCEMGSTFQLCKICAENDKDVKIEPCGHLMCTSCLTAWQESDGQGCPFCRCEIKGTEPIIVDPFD

SMILES: C[C@H](Cc1nncn1C)c1cc(-c2cn[nH]c2)nc(N2Cc3c(cccc3C(F)(F)F)C2=O)c1 [Example 684, (R)-2-(4-(1-(4-methyl-4H-1,2,4-triazol-3-yl)propan-2-yl)-6-(1H-pyrazol-4-yl)pyridin-2-yl)-4-(trifluoromethyl)isoindolin-1-one]
- IC50 [1]: 0.301 to 1 µM
- IC50 [2]: ≤ 1 µM
- fold induction at 0.3 µM ([3]; 0.3 μM Cbl-b inhibitor): < 1
- fold induction at 1 µM ([3]; 1 μM Cbl-b inhibitor): < 1
- fold induction at 1 µM [4]: 0.051 to 0.1
- fold induction at 1 µM [5]: < 0.6
